# Source: ChEMBL document CHEMBL1153863, “Evaluation of the local anaesthetic activity of 3-aminobenzo[d]isothiazole derivatives using the rat sciatic nerve model” (2009)
# Assay: Local anaesthetic activity in rat sciatic nerve assessed as vitality time at 1.5%
# Assay type: functional
row,SMILES,VT50
1,CCN(CC)CC(=O)Nc1nsc2ccccc12,600 min
2,CCNCC(=O)Nc1nsc2ccccc12,658 min
3,O=C(CN1CCOCC1)Nc1nsc2ccccc12,666.7 min
4,O=C(CN1CCCC1)Nc1nsc2ccccc12,705.5 min
5,O=C(CN1CCCCC1)Nc1nsc2ccccc12,555.8 min

# Assay: Local anaesthetic activity in rat sciatic nerve assessed as time required to decrease compound action potential to 50 %
# Assay type: functional
row,SMILES,IT50
1,Cc1ccc2snc(NC(=O)C(C)N3CCOCC3)c2c1 (stereo not drawn),2.23 min
2,Cc1ccc2snc(NC(=O)C(C)NC3CCCCC3)c2c1 (stereo not drawn),39 min
3,CC(C(=O)Nc1nsc2ccccc12)N1CCCCC1 (stereo not drawn),8.9 min
4,CCNCC(=O)Nc1nsc2ccccc12,5 min
5,CC(C(=O)Nc1nsc2ccccc12)N(C)C (stereo not drawn),7.4 min
6,CCNC(C)C(=O)Nc1nsc2ccc(C)cc12 (stereo not drawn),4.2 min
7,CNCC(=O)Nc1nsc2ccccc12,10 min
8,O=C(CN1CCC(c2ccccc2)CC1)Nc1nsc2ccccc12,18.5 min
9,CNC(C)C(=O)Nc1nsc2ccccc12 (stereo not drawn),12.8 min
10,CCCNC(C)C(=O)Nc1nsc2ccccc12 (stereo not drawn),5.3 min
11,CC(NC1CCCCC1)C(=O)Nc1nsc2ccccc12 (stereo not drawn),5.8 min
12,O=C(CN1CCOCC1)Nc1nsc2ccccc12,5.5 min
13,CCN(CC)C(C)C(=O)Nc1nsc2ccccc12 (stereo not drawn),3.85 min
14,O=C(CN1CCCC1)Nc1nsc2ccccc12,5 min
15,O=C(CN1CCCCC1)Nc1nsc2ccccc12,7 min

# Assay: Local anaesthetic activity in rat sciatic nerve assessed as vitality time
# Assay type: functional
row,SMILES,VT50
1,Cc1ccc2snc(NC(=O)C(C)N3CCOCC3)c2c1 (stereo not drawn),738 min
2,CC(C(=O)Nc1nsc2ccccc12)N1CCCCC1 (stereo not drawn),500 min
3,CCNCC(=O)Nc1nsc2ccccc12,600 min
4,CC(C(=O)Nc1nsc2ccccc12)N(C)C (stereo not drawn),690 min
5,CCNC(C)C(=O)Nc1nsc2ccc(C)cc12 (stereo not drawn),702 min
6,CNCC(=O)Nc1nsc2ccccc12,786 min
7,CNC(C)C(=O)Nc1nsc2ccccc12 (stereo not drawn),450 min
8,CCCNC(C)C(=O)Nc1nsc2ccccc12 (stereo not drawn),750 min
9,O=C(CN1CCOCC1)Nc1nsc2ccccc12,511 min
10,CCN(CC)C(C)C(=O)Nc1nsc2ccccc12 (stereo not drawn),404.2 min
11,O=C(CN1CCCC1)Nc1nsc2ccccc12,610 min
12,O=C(CN1CCCCC1)Nc1nsc2ccccc12,500 min

# Assay: Local anaesthetic activity in rat sciatic nerve assessed as time required to decrease compound action potential to 100 %
# Assay type: functional
row,SMILES,IT100
1,Cc1ccc2snc(NC(=O)C(C)N3CCOCC3)c2c1 (stereo not drawn),20 min
2,Cc1ccc2snc(NC(=O)C(C)NC3CCCCC3)c2c1 (stereo not drawn),42.5 min
3,CC(C(=O)Nc1nsc2ccccc12)N1CCCCC1 (stereo not drawn),20.9 min
4,CCNCC(=O)Nc1nsc2ccccc12,24.2 min
5,CC(C(=O)Nc1nsc2ccccc12)N(C)C (stereo not drawn),14 min
6,CCNC(C)C(=O)Nc1nsc2ccc(C)cc12 (stereo not drawn),12.9 min
7,CNCC(=O)Nc1nsc2ccccc12,34 min
8,CNC(C)C(=O)Nc1nsc2ccccc12 (stereo not drawn),26.7 min
9,CCCNC(C)C(=O)Nc1nsc2ccccc12 (stereo not drawn),24.1 min
10,CC(NC1CCCCC1)C(=O)Nc1nsc2ccccc12 (stereo not drawn),25.3 min
11,O=C(CN1CCOCC1)Nc1nsc2ccccc12,10 min
12,CCN(CC)C(C)C(=O)Nc1nsc2ccccc12 (stereo not drawn),14.1 min
13,O=C(CN1CCCC1)Nc1nsc2ccccc12,14 min
14,O=C(CN1CCCCC1)Nc1nsc2ccccc12,16 min

# Assay: Local anaesthetic activity in rat sciatic nerve assessed as time required to decrease compound action potential to recover to 50 %
# Assay type: functional
row,SMILES,RT50
1,Cc1ccc2snc(NC(=O)C(C)N3CCOCC3)c2c1 (stereo not drawn),60 min
2,CC(C(=O)Nc1nsc2ccccc12)N1CCCCC1 (stereo not drawn),58 min
3,CCNCC(=O)Nc1nsc2ccccc12,76 min
4,CC(C(=O)Nc1nsc2ccccc12)N(C)C (stereo not drawn),77 min
5,CCNC(C)C(=O)Nc1nsc2ccc(C)cc12 (stereo not drawn),100 min
6,CNCC(=O)Nc1nsc2ccccc12,48 min
7,CNC(C)C(=O)Nc1nsc2ccccc12 (stereo not drawn),68 min
8,CCCNC(C)C(=O)Nc1nsc2ccccc12 (stereo not drawn),88.9 min
9,CC(NC1CCCCC1)C(=O)Nc1nsc2ccccc12 (stereo not drawn),52.3 min
10,O=C(CN1CCOCC1)Nc1nsc2ccccc12,88 min
11,CCN(CC)C(C)C(=O)Nc1nsc2ccccc12 (stereo not drawn),57.7 min
12,O=C(CN1CCCC1)Nc1nsc2ccccc12,105 min
13,O=C(CN1CCCCC1)Nc1nsc2ccccc12,142.7 min

# Assay: Local anaesthetic activity in rat sciatic nerve assessed as time required to decrease compound action potential to 50 % at 1.5%
# Assay type: functional
row,SMILES,IT50
1,CCN(CC)CC(=O)Nc1nsc2ccccc12,12 min
2,CCNCC(=O)Nc1nsc2ccccc12,11.5 min
3,O=C(CN1CCOCC1)Nc1nsc2ccccc12,8.1 min
4,O=C(CN1CCCC1)Nc1nsc2ccccc12,11.9 min
5,O=C(CN1CCCCC1)Nc1nsc2ccccc12,8.05 min

# Assay: Local anaesthetic activity in rat sciatic nerve assessed as time required to decrease compound action potential to 50 % at 1.5% relative to Lidocaine
# Assay type: functional
# Parameters: scale not given: the % may be the effect or the level left
row,SMILES,Activity
1,CCN(CC)CC(=O)Nc1nsc2ccccc12,26.2%
2,CCNCC(=O)Nc1nsc2ccccc12,27.3%
3,O=C(CN1CCOCC1)Nc1nsc2ccccc12,26.2%
4,O=C(CN1CCCC1)Nc1nsc2ccccc12,26.4%
5,O=C(CN1CCCCC1)Nc1nsc2ccccc12,39%

# Assay: Local anaesthetic activity in rat sciatic nerve assessed as time required to decrease compound action potential to 100 % relative to Lidocaine
# Assay type: functional
# Parameters: scale not given: the % may be the effect or the level left
row,SMILES,Activity
1,Cc1ccc2snc(NC(=O)C(C)N3CCOCC3)c2c1 (stereo not drawn),70%
2,Cc1ccc2snc(NC(=O)C(C)NC3CCCCC3)c2c1 (stereo not drawn),32.9%
3,CC(C(=O)Nc1nsc2ccccc12)N1CCCCC1 (stereo not drawn),73.7%
4,CCNCC(=O)Nc1nsc2ccccc12,57.9%
5,CC(C(=O)Nc1nsc2ccccc12)N(C)C (stereo not drawn),70%
6,CCNC(C)C(=O)Nc1nsc2ccc(C)cc12 (stereo not drawn),108.5%
7,CNCC(=O)Nc1nsc2ccccc12,41.2%
8,CNC(C)C(=O)Nc1nsc2ccccc12 (stereo not drawn),121.7%
9,CCCNC(C)C(=O)Nc1nsc2ccccc12 (stereo not drawn),70%
10,CC(NC1CCCCC1)C(=O)Nc1nsc2ccccc12 (stereo not drawn),63.6%
11,O=C(CN1CCOCC1)Nc1nsc2ccccc12,140%
12,CCN(CC)C(C)C(=O)Nc1nsc2ccccc12 (stereo not drawn),84.8%
13,O=C(CN1CCCC1)Nc1nsc2ccccc12,100%
14,O=C(CN1CCCCC1)Nc1nsc2ccccc12,87.5%

# Assay: Local anaesthetic activity in rat sciatic nerve assessed as time required to decrease compound action potential to 100 % at 1.5% relative to Lidocaine
# Assay type: functional
# Parameters: scale not given: the % may be the effect or the level left
row,SMILES,Activity
1,CCN(CC)CC(=O)Nc1nsc2ccccc12,26%
2,CCNCC(=O)Nc1nsc2ccccc12,28.1%
3,O=C(CN1CCOCC1)Nc1nsc2ccccc12,26%
4,O=C(CN1CCCC1)Nc1nsc2ccccc12,49.5%
5,O=C(CN1CCCCC1)Nc1nsc2ccccc12,59.8%

# Assay: Local anaesthetic activity in rat sciatic nerve assessed as time required to decrease compound action potential to recover to 50 % at 1.5%
# Assay type: functional
row,SMILES,RT50
1,CCN(CC)CC(=O)Nc1nsc2ccccc12,121.5 min
2,CCNCC(=O)Nc1nsc2ccccc12,135 min
3,O=C(CN1CCOCC1)Nc1nsc2ccccc12,40 min
4,O=C(CN1CCCC1)Nc1nsc2ccccc12,101.5 min
5,O=C(CN1CCCCC1)Nc1nsc2ccccc12,141.2 min

# Assay: Local anaesthetic activity in rat sciatic nerve assessed as time required to decrease compound action potential to 100 % at 1.5%
# Assay type: functional
row,SMILES,IT100
1,CCN(CC)CC(=O)Nc1nsc2ccccc12,53.9 min
2,CCNCC(=O)Nc1nsc2ccccc12,49.9 min
3,O=C(CN1CCOCC1)Nc1nsc2ccccc12,19 min
4,O=C(CN1CCCC1)Nc1nsc2ccccc12,28.3 min
5,O=C(CN1CCCCC1)Nc1nsc2ccccc12,23.4 min

# Assay: Local anaesthetic activity in rat sciatic nerve assessed as time required to decrease compound action potential to 50 % relative to Lidocaine
# Assay type: functional
# Parameters: scale not given: the % may be the effect or the level left
row,SMILES,Activity
1,Cc1ccc2snc(NC(=O)C(C)N3CCOCC3)c2c1 (stereo not drawn),140.8%
2,Cc1ccc2snc(NC(=O)C(C)NC3CCCCC3)c2c1 (stereo not drawn),8.1%
3,CC(C(=O)Nc1nsc2ccccc12)N1CCCCC1 (stereo not drawn),21.7%
4,CCNCC(=O)Nc1nsc2ccccc12,62.8%
5,CC(C(=O)Nc1nsc2ccccc12)N(C)C (stereo not drawn),18.8%
6,CCNC(C)C(=O)Nc1nsc2ccc(C)cc12 (stereo not drawn),74.8%
7,CNCC(=O)Nc1nsc2ccccc12,31.4%
8,O=C(CN1CCC(c2ccccc2)CC1)Nc1nsc2ccccc12,17%
9,CNC(C)C(=O)Nc1nsc2ccccc12 (stereo not drawn),24.5%
10,CCCNC(C)C(=O)Nc1nsc2ccccc12 (stereo not drawn),31.4%
11,CC(NC1CCCCC1)C(=O)Nc1nsc2ccccc12 (stereo not drawn),44.9%
12,O=C(CN1CCOCC1)Nc1nsc2ccccc12,57.1%
13,CCN(CC)C(C)C(=O)Nc1nsc2ccccc12 (stereo not drawn),49.8%
14,O=C(CN1CCCC1)Nc1nsc2ccccc12,62.8%
15,O=C(CN1CCCCC1)Nc1nsc2ccccc12,44.9%
